{"source": "patent US20190388389A1", "about": "“METHODS AND COMPOSITIONS OF CARNOSOL FOR INHIBITING UVB-INDUCED SKIN DAMAGE” (Ohio University, priority 2017, published 2019)", "key": {"HaCaT cells": {"test_system": "HaCaT cells", "assay": "Cell survival analysis (Annexin V/PI flow cytometry), HaCaT", "format": "cell-based", "procedure": "(§1) FIGS. 6A-6C: Carnosol protects UVB-induced cell death. Cells were exposed to UVB radiation with different dose of carnosol treatment. At indicated time point, cells were collected and Annexin V/PI apoptosis detection kit was used to detect cell apoptosis. (FIG. 6A) HaCaT cell survival rate with different concentrations (μM) of carnosol treatment at 12 h post UVB radiation. (FIG. 6B) Time dependent assay (h) in the presence or absence of carnosol treatment in HaCaT cells. (FIG. 6C) MEF cells treated with 20 μM carnosol at indicated time point (h). The error bars present the standard deviation of three sets of independent experiments. *p<0.05 versus control group; **p<0.05 versus corresponded UV group.\n(§2) UVB was generated from a Bench XX-Series UV Lamp (UVP Inc.) equipped with two 15-watt UVB tubes (UVP Inc.). The intensity of UVB was calibrated by a UVP model UVX digital radiometer (UVP Inc.) after the lamps warmed up for 5 min. For irradiating cells, the dose rate for 8 mJ/cm^2 or 50 mJ/cm^2 of UVB radiation was 0.8 or 3.8 mW/s respectively. Medium was removed before exposing the cells to UVB. After UVB radiation, fresh medium was added to the culture plates with or without drugs, and the cells were continue incubating at 37° C. with 5% CO2 until further analysis. Carnosol was disovled in DMSO and was irradiated with 50 mJ/cm^2 of UVB radiation at a dose rate of 3.8 mW/s before subjecting to cells or structure analysis using Mass Spectrum.\n(§3) Carnosol (Cayman) (FIG. 1) was added to cells at indicated concentration at 1 h before exposing the cells to UVB radiation. After radiation, cells were continuously incubated with or without carnosol in the medium until further analysis.\n(§4) Total cell number of 1×10^5 was used for each analysis using flow cytometer. Fluorescein isothiocyanate (FITC) conjugated-annexin V (ANXS)/propidium iodide (PI) apoptosis detection kit (BD Biosciences) were used to stain the cells through the determination of the loss of membrane phospholipid […] and membrane integrity. Cell survival rate (R) was calculated as: R=[1×10^5−number of positive stained cells]/1×10^5. Briefly, the cells were harvested by 0.25% trypsin digestion, combined with the cells floating in the medium and washed twice with cold PBS. The cells were then suspended in ANXS binding buffer (10 mM Hepes/NaOH, pH 7.4, 140 mM NaCl and 2.5 mM CaCl2). The cell suspension was mixed with 5 μL ANXS-FITC and 5 μL PI. The cell mixture was incubated for […] in dark at room temperature and the ANXS/PI double-stained cells were analyzed using a FACSort Flow Cytometer (BD Science) equipped with CellQuest software (BD Science)."}, "MEF cells": {"test_system": "MEF cells", "assay": "Cell survival analysis (Annexin V/PI flow cytometry), MEF", "format": "cell-based, mouse", "details": "20 μM carnosol", "procedure": "as §1, §2, §3, §4"}, "normal skin cells": {"test_system": "normal skin cells", "assay": "Cell proliferation with carnosol or its decomposed molecules (FIG. 11)", "format": "cell-based", "procedure": "FIG. 11. The effect of carnosol or its decomposed molecules on cell proliferation was determined.\nas §2"}}, "data": [{"compound": "CC(C)c1cc2c(c(O)c1O)[C@@]13CCCC(C)(C)[C@@H]1C[C@@H]2OC3=O", "note": "[carnosol]", "values": [{"measurement": "cell survival with UVB radiation", "setting": "HaCaT cells; 1 μM carnosol, 12 h post UVB", "result": "no statistically significant effect"}, {"measurement": "cell survival with UVB radiation", "setting": "HaCaT cells; 10 μM carnosol, 12 h post UVB", "result": "no statistically significant effect"}, {"measurement": "toxicity to the cells without UVB radiation", "setting": "HaCaT cells; 30 μM carnosol", "result": "limited toxicity"}, {"measurement": "cell survival", "setting": "HaCaT cells; carnosol alone 1-30 μM, no UVB, 12 h", "result": "no significant cell survival change"}, {"measurement": "cell survival rate", "setting": "HaCaT cells; dose assay, 20 μM carnosol, 12 h post UVB, UVB alone 20%", "result": 30, "unit": "%"}, {"measurement": "cell survival rate", "setting": "HaCaT cells; dose assay, 30 μM carnosol, 12 h post UVB, vs 20 μM", "result": "no further increasing"}, {"measurement": "cell survival rate", "setting": "HaCaT cells; time assay, 20 μM carnosol, 6 h post UVB", "result": "no significance"}, {"measurement": "cell survival rate", "setting": "HaCaT cells; time assay, 20 μM carnosol, 12 h post UVB, UVB alone 30%", "result": 40, "unit": "%"}, {"measurement": "cell survival rate", "setting": "HaCaT cells; time assay, 20 μM carnosol, 24 h post UVB, UVB alone 7%", "result": 15, "unit": "%"}, {"measurement": "cell survival rate", "setting": "MEF cells; 12 h post UVB, UVB alone about 88%", "result": 97, "unit": "%"}, {"measurement": "cell survival rate", "setting": "MEF cells; 24 h post UVB, UVB alone 80%", "result": 90, "unit": "%"}, {"measurement": "cell survival rate", "setting": "MEF cells; 36 h post UVB, UVB alone 62%", "result": 70, "unit": "%"}, {"measurement": "cell survival rate", "setting": "MEF cells; 48 h post UVB, UVB alone 43%", "result": 58, "unit": "%"}, {"measurement": "protection of the UVB-irradiated cells (proliferation)", "setting": "normal skin cells", "result": "partial protection"}, {"measurement": "cell proliferation / cell growth in normal skin cells", "setting": "normal skin cells; without UVB protection context", "result": "some effect in inhibiting cell proliferation"}]}]}
